Laboratory results from article PMC4691061, “Repositioning of Thiourea-Containing Drugs as Tyrosinase Inhibitors” (International Journal of Molecular Sciences, 2015).
Like-named read-outs stand apart in the source and are kept apart here.

What was measured:
mushroom tyrosinase [1] = target: T1, mushroom tyrosinase (Agaricus bisporus, UniProt C7FF04); experiment: Mushroom tyrosinase enzyme activity inhibition assay; format: biochemical; settings: for LE (ligand efficiency): 1.4 × (−log10IC50)/N, N = number of non-hydrogen atoms; for inhibition of tyrosinase enzyme activity (in words): concentration-dependent profiles, urea, thiourea, selenourea compared without DMSO; for inhibition of tyrosinase (in words): at 300 μM
mushroom tyrosinase [2] = target: T1, mushroom tyrosinase; experiment: Kinetics of enzyme inhibition (Michaelis-Menten, nonlinear fitting, F-statistics); format: biochemical; settings: for Mechanism: model selected by F-statistics among competitive, uncompetitive, non-competitive, mixed
B16F10 cells [3] = experiment: Melanin content assay (IBMX-stimulated); format: cell-based, murine; settings: for activity at 20 µM: Mus musculus
mammalian tyrosinase = target: T2, mammalian tyrosinase (Mus musculus, UniProt P11344); experiment: Tyrosinase enzyme assay with B16F10 cell lysates; format: biochemical, murine; settings: for Cell Lysate (%): B16F10 cell lysates, DOPA substrate, absence of inhibitor = 100%; for inhibition of mammalian tyrosinase (in words): cell extracts of B16F10 cells
T2 construct: host or cells: B16F10 murine melanoma cells (lysate supernatant)
T2 sequence (P11344 19-533): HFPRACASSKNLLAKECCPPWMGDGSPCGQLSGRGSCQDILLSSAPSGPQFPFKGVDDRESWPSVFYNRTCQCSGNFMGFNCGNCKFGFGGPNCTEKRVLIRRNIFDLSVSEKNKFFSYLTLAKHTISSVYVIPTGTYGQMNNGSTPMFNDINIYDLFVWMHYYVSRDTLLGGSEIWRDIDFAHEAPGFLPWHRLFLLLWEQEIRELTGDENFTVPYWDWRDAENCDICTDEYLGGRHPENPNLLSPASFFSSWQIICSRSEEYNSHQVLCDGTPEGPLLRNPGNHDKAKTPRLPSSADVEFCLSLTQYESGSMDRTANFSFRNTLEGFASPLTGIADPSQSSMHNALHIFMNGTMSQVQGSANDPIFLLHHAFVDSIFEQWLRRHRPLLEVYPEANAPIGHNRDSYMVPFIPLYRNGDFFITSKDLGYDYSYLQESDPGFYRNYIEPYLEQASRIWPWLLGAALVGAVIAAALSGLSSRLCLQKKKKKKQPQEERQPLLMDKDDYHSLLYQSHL

B16F10 cells [4] = experiment: MTT cell viability assay; settings: for MTT (%): 20 µM, mean ± SD, triplicate
tyrosinase = settings: cited from earlier work
[5] = 20 μM, B16F10 cells, IBMX 100 μM
[6] = B16-F10, 20 µM, B16F10 cells, IBMX 100 μM, absence of inhibitor = 100%, read-out: Melanin Content (%)
[7] = mushroom tyrosinase, 675 μM L-tyrosine as substrate, 5% DMSO, read-out: IC50
[8] = Ki for competitive, Kic for non-competitive model, nonlinear data fitting, read-out: Ki or Kic
[9] = BindingDB-registered value, read-out: IC50 of closest known inhibitor

T1 sequence (C7FF04 1-392): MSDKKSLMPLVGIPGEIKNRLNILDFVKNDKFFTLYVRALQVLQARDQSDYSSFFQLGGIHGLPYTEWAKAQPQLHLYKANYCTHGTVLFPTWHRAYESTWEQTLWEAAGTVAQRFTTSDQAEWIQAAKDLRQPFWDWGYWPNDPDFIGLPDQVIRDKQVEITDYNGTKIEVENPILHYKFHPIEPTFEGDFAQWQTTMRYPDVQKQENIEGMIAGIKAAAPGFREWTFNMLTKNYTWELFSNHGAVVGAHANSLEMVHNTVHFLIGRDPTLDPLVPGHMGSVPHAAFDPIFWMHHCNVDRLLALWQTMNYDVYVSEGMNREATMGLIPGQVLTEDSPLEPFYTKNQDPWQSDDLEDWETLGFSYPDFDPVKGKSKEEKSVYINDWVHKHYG

## N=C(N)NN=C1C=CC(=NNC(N)=S)C=C1 [compound 4, Ambazone]
Mushroom tyrosinase [1]
  IC50: 15 µM
  LE (ligand efficiency): 0.42
Mushroom tyrosinase [2]
  Ki: 9 µM
  Mechanism: Non-competitive
B16F10 cells [3]; 20 μM, B16F10 cells
  effect on melanin content (in words): decreased melanin content
B16F10 cells [3]; [5]
  decrease of melanin content: 20%
B16F10 cells [3]; [6]
  activity at 20 µM: 80 ± 11%
Mammalian tyrosinase
  Cell Lysate (%): 87 ± 9%
  inhibition of mammalian tyrosinase (in words): significantly inhibited the function of tyrosinase
B16F10 cells [4]
  MTT (%): 95 ± 12%
B16F10 cells [4]; up to 20 μM
  cytotoxicity (in words): without causing cellular toxicity

## Cn1cc[nH]c1=S [compound 5, Methimazole]
Mushroom tyrosinase [1]; [7]
  IC50: 94 µM
Mushroom tyrosinase [2]; [8]
  Ki: 73 µM
Mushroom tyrosinase [2]
  Mechanism: Non-competitive
Mushroom tyrosinase [2]; listed as methimazole
  Mechanism: non-competitive inhibitor
B16F10 cells [3]; [6]
  activity at 20 µM: 104 ± 12%
Mammalian tyrosinase
  Cell Lysate (%): 93 ± 10%
  inhibition of mammalian tyrosinase (in words): limited
tyrosinase
  inhibition mechanism (reported): mixed inhibitor
B16F10 cells [4]
  MTT (%): 100 ± 9%

## NC(N)=O [urea]
Mushroom tyrosinase [1]
  inhibition of tyrosinase enzyme activity (in words): no effect on activity

## NC(=S)NN=C1CCCC1 [C00011, cyclopentanone thiosemicarbazone]
tyrosinase; [9]
  IC50: 0.17 µM

## Cc1cc(=O)[nH]c(=S)[nH]1 [compound 8, Methylthiouracil]
Mushroom tyrosinase [1]
  LE (ligand efficiency): 0.56
Mushroom tyrosinase [1]; [7]
  IC50: 266 µM
Mushroom tyrosinase [2]; [8]
  Ki: 170 µM
Mushroom tyrosinase [2]
  Mechanism: Non-competitive
B16F10 cells [3]; [6]
  activity at 20 µM: 102 ± 14%
Mammalian tyrosinase
  Cell Lysate (%): 78 ± 10%
  inhibition of mammalian tyrosinase (in words): significantly inhibited the function of tyrosinase
B16F10 cells [4]
  MTT (%): 108 ± 10%

## NNC(N)=S [thiosemicarbazide]
Mushroom tyrosinase [1]
  inhibition of tyrosinase enzyme activity (in words): much weaker than thiourea

## CNC(=S)NC [dimethylthiourea]
Mushroom tyrosinase [1]
  inhibition of tyrosinase (in words): hardly inhibited tyrosinase
  inhibition of tyrosinase enzyme activity (in words): much weaker than thiourea

## NC(N)=S [thiourea]
Mushroom tyrosinase [1]
  inhibition of tyrosinase enzyme activity (in words): decreased tyrosinase enzyme activity in a concentration dependent manner

## NC(=S)NN=Cc1ccc(F)cc1 [C00010, 4-fluorobenzaldehyde thiosemicarbazone]
tyrosinase; [9]
  IC50: 11 µM

## CCCc1cc(=O)[nH]c(=S)[nH]1 [compound 9, Propylthiouracil]
Mushroom tyrosinase [1]
  IC50: 375 µM
Mushroom tyrosinase [2]
  Ki: 196 µM
  Mechanism: Non-competitive
B16F10 cells [3]; [6]
  activity at 20 µM: 102 ± 10%
Mammalian tyrosinase
  Cell Lysate (%): 77 ± 9%
  inhibition of mammalian tyrosinase (in words): significantly inhibited the function of tyrosinase
B16F10 cells [4]
  MTT (%): 102 ± 12%

## CNC(=S)N(C)C [trimethylthiourea]
Mushroom tyrosinase [1]
  inhibition of tyrosinase (in words): hardly inhibited tyrosinase
  inhibition of tyrosinase enzyme activity (in words): much weaker than thiourea

## CC(=O)Nc1ccc(/C=N/NC(N)=S)cc1 [compound 3, Thioacetazone]
Mushroom tyrosinase [1]
  IC50: 14 µM
  LE (ligand efficiency): 0.43
Mushroom tyrosinase [2]
  Ki: 18 µM
  Mechanism: Non-competitive
B16F10 cells [3]; [6]
  activity at 20 µM: 102 ± 10%
Mammalian tyrosinase
  Cell Lysate (%): 74 ± 7%
  inhibition of mammalian tyrosinase (in words): significantly inhibited the function of tyrosinase
B16F10 cells [4]
  MTT (%): 95 ± 15%

## NC(=S)Nc1ccccc1 [compound 1, Phenylthiourea]
Mushroom tyrosinase [2]
  Mechanism: Competitive
Mushroom tyrosinase [2]; listed as PTU
  Mechanism: competitive inhibitors
B16F10 cells [3]; [5]
  decrease of melanin content: 40%
B16F10 cells [3]; B16-F10, read-out: Melanin Content (%)
  activity at 20 µM: 59 ± 7%
Mammalian tyrosinase
  Cell Lysate (%): 5 ± 1%
tyrosinase
  inhibition mechanism (reported): competitive inhibitors
B16F10 cells [4]
  MTT (%): 113 ± 10%

## Nn1c(-c2ccncc2)n[nH]c1=S [C00012]
tyrosinase; BindingDB-registered value, column headed IC50, footnote says Ki, read-out: Ki of closest known inhibitor
  Ki: 1 µM

## O=c1[nH]c(=S)[nH]c(O)c1Cc1ccc(O)cc1 [C00013]
tyrosinase; [9]
  IC50: 70 µM
tyrosinase; known tyrosinase inhibitor, read-out: IC50
  IC50: 70 µM

## CCCCOCCOc1ccc(Cc2c(O)[nH]c(=S)[nH]c2=O)cc1 [C00014]
tyrosinase; [9]
  IC50: 179 µM

## CNC(N)=S [monomethylthiourea]
Mushroom tyrosinase [1]
  inhibition of tyrosinase enzyme activity (in words): much weaker than thiourea

## CN(C)C(=S)N(C)C [tetramethylthiourea]
Mushroom tyrosinase [1]
  inhibition of tyrosinase (in words): hardly inhibited tyrosinase
  inhibition of tyrosinase enzyme activity (in words): much weaker than thiourea

## O=c1cc(CO)occ1O [compound 2, Kojic acid]
B16F10 cells [3]; [5]
  decrease of melanin content: < 5%
B16F10 cells [3]; [6]
  activity at 20 µM: 108 ± 11%
tyrosinase
  inhibition mechanism (reported): competitive inhibitors
B16F10 cells [4]
  MTT (%): 114 ± 10%

## CCOC(=O)n1ccn(C)c1=S [compound 6, Carbimazole]
Mushroom tyrosinase [1]
  inhibition of tyrosinase enzyme activity (in words): did not inhibit tyrosinase
Mushroom tyrosinase [1]; [7]
  IC50: > 2000 µM

## N=C(N)[SeH] [selenourea]
Mushroom tyrosinase [1]
  inhibition of tyrosinase enzyme activity (in words): no effect on activity

## O=c1cc[nH]c(=S)[nH]1 [compound 7, Thiouracil]
Mushroom tyrosinase [1]
  IC50: 215 µM
  LE (ligand efficiency): 0.64
Mushroom tyrosinase [2]
  Mechanism: Non-competitive
B16F10 cells [3]; [6]
  activity at 20 µM: 106 ± 14%
Mammalian tyrosinase
  Cell Lysate (%): 79 ± 9%
  inhibition of mammalian tyrosinase (in words): significantly inhibited the function of tyrosinase
B16F10 cells [4]
  MTT (%): 99 ± 10%
